In patent US5658944A, “Anti-atherosclerotic aryl compounds” (The University of South Carolina, priority 1990, dated 1997):

What was measured:
[1] = tested on: ACAT; experiment: In vitro assay for the inhibition of ACAT activity; type: biochemical, rat; settings: hepatic microsomes of cholesterol/cholic acid fed male CD rats, [14C]oleoyl-CoA incorporation
Method: (i) In vitro assay for the inhibition of ACAT activity
ACAT activity was determined as described By Ross et al by the incorporation of [^14 C]oleoyl-CoA into cholesterol [^14 C]oleate using hepatic microsomes as the source of both ACAT and cholesterol. Microsomes were prepared from the livers of male CD rats fed a 0.4% cholesterol/0.2% cholic acid diet 3.5 days before sacrifice. Various concentrations of a test compound were preincubated with a 0.5 mg/ml microsomal suspension and after 15 minutes a 50 μg aliquot was removed and incubated with 25 μM of [^14 C]-enriched oleoyl-CoA for 4 minutes. The reaction was terminated by the addition of 1 ml of ethanol and 4 ml of hexane. After shaking, the hexane layer was removed and evaporated to dryness. The hexane extract was then reconstituted in 150 μl of HPLC solvent and injected on to a B&J OD5 Reverse Phase C18 column using an isocratic mobile phase of acetonitrile: isopropanol:heptane (50:40:10) in 0.5% acetic acid at a flow rate of 1.0 ml/min. The product of the reaction, [^14 C]oleoyl cholesterol, was measured using a Flow One radiometric detector. The ACAT IC50 value for each compound was determined from a plot of % inhibition from control vs inhibitor concentration.

[2] = tested on: cholesterol-cholic acid fed rats; experiment: Determination of hypolipdemic activity in cholesterol-cholic acid fed rats; type: in vivo, rat; settings: serum on fourth day
Description: (ii) Determination of hypolipdemic activity in cholesterol-cholic acid fed rats
Male Sprague-Dawley rats (CD, Charles River) each weighing 200-300 g were used. Hypercholesterolemia was induced in the rats by administration of a diet enriched to 0.4% cholesterol, 0.2% cholic acid. Prior to the adminstration of the diet, blood samples were collected under halothane anesthesia by cardiac puncture to determine baseline lipid levels. The blood was allowed to clot and serum was obtained for the analysis of total cholesterol, dextran-precipitable lipoproteins cholesterol (VLDL+LDL) and total triglycerides. The rats were divided into groups so that each group had similar average baseline serum lipid levels. Five days after the initial blood sampling, administration of each test compound and the cholesterol-cholic acid-enriched diet was begun. Compounds to be tested by gavage were administered b.i.d. in either 0.5% methyl cellulose or 5% sodium bicarbonate a 9:00 a.m. and 3:00 p.m. for three days and at 9:00 a.m. on the fourth day. Compounds administered as part of the diet were dissolved in ethanol and sprayed on to the diet. The ethonol was allowed to evaporate and the diet given to the rats for three days. On the fourth day, blood samples were collected and the final serum lipid levels determined. All blood samplings were taken after a four-hour fast.

Row | SMILES | IC50 [1] | reduced LDL-cholestrol by ([2]; dose of 25 mg/kg) | reduced LDL-cholestrol by ([2]; dose of 50 mg/kg) | reduced LDL-cholestrol by ([2]; dose of 5 mg/kg) | reduced LDL-cholestrol by ([2]; dose of 0.5 mg/kg) | reduced LDL-cholestrol by ([2]; dose of 2 mg/kg)
1 | CCCCCCCN(Cc1ccc(OC(C)(C)C(=O)O)cc1)C(=O)Nc1ccc(OC)cc1OC [Synthetic Example 1, 2-(4-{[3-(2,4-dimethoxyphenyl)-1-heptylureido]methyl}phenoxy)-2-methylpropionic acid] | 4.5 µM | 55% | 67% | – | – | –
2 | CCCCCCCN(CCc1ccc(OC(C)(C)C(=O)O)cc1)C(=O)Nc1ccc(OC)cc1OC [Synthetic Example 2, 2-(4-{2-[3-(2,4-dimethoxyphenyl)-1-heptylureido]ethyl}phenoxy)-2-methylpropionic acid] | 3.4 µM | 61% | – | 41-71% | – | –
3 | CCCCCCCN(CCc1ccc(OC(C)(C)C(=O)O)cc1)C(=O)Nc1ccc(F)cc1F [Synthetic Example 3, 2-(4-{2-[3-(2,4-difluorophenyl)-1-heptylureido]ethyl}phenoxy)-2-methypropionic acid] | 7.6 µM | – | – | – | 90% | 74%
